Source: ChEMBL document CHEMBL1158884, “PSII inhibitory activity of resorcinolic lipids from Sorghum bicolor” (J Nat Prod, 2003)
Active and inactive are the calls of the source. No cut-off for these calls is given here.

Assays:
Lactuca sativa [1] = assay: Phytotoxicity against Lactuca sativa assessed as inhibition of seedlings germination at 3.33 mM after 4 days; type: functional, organism-based
Lactuca sativa [2] = assay: Phytotoxicity against Lactuca sativa assessed as inhibition of seedlings germination at 1.0 mM after 4 days; type: functional, organism-based
[3] = Inhibition of Photosystem 2 in spinach thylakoid membrane assessed as inhibition of photosynthetic oxygen evolution; type: cell membranes, Spinacia oleracea

IC50 [3] [nM]	Compound	Activity (Lactuca sativa [1])	Activity (Lactuca sativa [2])
90	C=CC/C=C\C/C=C\CCCCCCCc1c(O)c(OC)cc(OC)c1O	Active	Active
230	CN(C)C(=O)Nc1ccc(Cl)c(Cl)c1 [DCMU]		
200	C=CC/C=C\C/C=C\CCCCCCCc1c(O)c(OC)cc(OCC)c1O [E565]		

Compound	IC50 [3] [nM]	Activity (Lactuca sativa [1])	Activity (Lactuca sativa [2])
C=CC/C=C\C/C=C\CCCCCCCC1=C(O)C(=O)C=C(OC)C1=O [SORGOLEONE]	90	Active	
